Measured values published in patent US20100331348A1, “TROPANE DERIVATIVES USEFUL AS PESTICIDES” (SYNGENTA CROP PROTECTION, INC., priority 2007, published 2010).
Read-outs that look alike come from different tables or passages of the source.

What was measured:
Aedes aegypti = Aedes aegypti (Yellow fever mosquito) larvae test; type: in vivo; conditions: 48 h
[1] = test system: Erysiphe graminis f.sp. tritici; test: Erysiphe graminis f.sp. tritici (wheat powdery mildew) leaf disk assay; type: in vivo; conditions: Blumeria graminis, foliar, 96 h, preventive, four days after inoculation, read-out: control of fungal infection, Erysiphe graminis fsp. tritici
[2] = test system: Puccinia recondita f.sp. tritici; test: Puccinia recondita f.sp. tritici (wheat brown rust) leaf disk assay; type: in vivo; conditions: foliar, 216 h, preventive, nine days after inoculation, read-out: control of fungal infection, Puccinia recondita f.sp. tritici
Pyricularia oryzae = test: whole plant or invertebrate; type: in vivo; conditions: foliar, 96 h
Phytophthora infestans = test: whole plant or invertebrate; type: in vivo; conditions: foliar, 96 h, read-out: control of fungal infection, Phytophthora infestans
Plasmopara viticola = Plasmopara viticola (downy mildew of grapevine) leaf disk assay; type: in vivo; conditions: foliar, 168 h, preventive, seven days after inoculation, read-out: control of fungal infection, Plasmopara viticola
Plutella xylostella = Plutella xylostella (Diamond back moth) artificial diet test; conditions: 120 h, read-out: control of Plutella xylostella
[3] = read-out: control of fungal infection, Pyricularia oryzae (at least 60% list)
[4] = read-out: control of fungal infection, Pyricularia oryzae (at least 80% list)

Row | SMILES | pest or weed control at 2 ppm (Aedes aegypti) [%] | pest or weed control at 200 ppm [1] [%] | pest or weed control at 200 ppm [2] [%] | pest or weed control at 200 ppm (Pyricularia oryzae; [3]) [%] | pest or weed control at 200 ppm (Phytophthora infestans) [%] | pest or weed control at 200 ppm (Plasmopara viticola) [%] | pest or weed control at 200 ppm (Pyricularia oryzae; [4]) [%] | pest or weed control at 200 ppm (Plutella xylostella) [%]
1 | Clc1cccc(CON=C2CC3CCC(C2)N3c2ncnc3sccc23)c1 [Example 5.150] | ≥ 80 | ≥ 80 | ≥ 80 | ≥ 60 | ≥ 80 |  |  | 
2 | Clc1cc(ON=C2CC3CCC(C2)N3c2ncnc3sccc23)nc(Cl)n1 [Example 5.154] |  |  |  |  |  | ≥ 80 |  | 
3 | Brc1ccc(CON=C2CC3CCC(C2)N3c2ncnc3sccc23)cc1 [Example 5.158] |  | ≥ 80 | ≥ 80 |  | ≥ 80 |  | ≥ 80 | 
4 | CC(=O)Nc1ccc(CON=C2CC3CCC(C2)N3c2ncnc3sccc23)cc1 [Example 5.159] |  | ≥ 80 |  |  | ≥ 80 |  |  | 
5 | Brc1cccc(CON=C2CC3CCC(C2)N3c2ncnc3sccc23)c1 [Example 5.181] | ≥ 80 | ≥ 80 | ≥ 80 | ≥ 60 | ≥ 80 |  |  | 
6 | Fc1ccc(CON=C2CC3CCC(C2)N3c2ncnc3sccc23)cc1F [Example 5.185] | ≥ 80 | ≥ 80 | ≥ 80 | ≥ 60 | ≥ 80 |  | ≥ 80 | ≥ 80
7 | Cc1cc(C)c(CON=C2CC3CCC(C2)N3c2ncnc3sccc23)c(C)c1 [Example 5.189] |  | ≥ 80 | ≥ 80 |  | ≥ 80 |  |  | 
8 | N#Cc1ccccc1CON=C1CC2CCC(C1)N2c1ncnc2sccc12 [Example 5.191] | ≥ 80 | ≥ 80 | ≥ 80 |  |  | ≥ 80 |  | 
9 | c1ccc2nc(CON=C3CC4CCC(C3)N4c3ncnc4sccc34)ccc2c1 [Example 5.193] | ≥ 80 | ≥ 80 | ≥ 80 |  |  | ≥ 80 |  | 
10 | N#Cc1cccc(CON=C2CC3CCC(C2)N3c2ncnc3sccc23)c1 [Example 5.199] |  | ≥ 80 | ≥ 80 |  | ≥ 80 |  | ≥ 80 | 
11 | Cc1nc(CON=C2CC3CCC(C2)N3c2ncnc3sccc23)cs1 [Example 5.220] |  | ≥ 80 | ≥ 80 |  | ≥ 80 |  |  | 
12 | Fc1cc(F)c(F)c(CON=C2CC3CCC(C2)N3c2ncnc3sccc23)c1 [Example 5.227] | ≥ 80 | ≥ 80 | ≥ 80 | ≥ 60 | ≥ 80 |  |  | 
13 | Fc1cc(CON=C2CC3CCC(C2)N3c2ncnc3sccc23)cc(C(F)(F)F)c1 [Example 5.231] |  | ≥ 80 |  | ≥ 60 |  | ≥ 80 |  | 
14 | Fc1cc(CON=C2CC3CCC(C2)N3c2ncnc3sccc23)cc(C(F)(F)F)c1F [Example 5.235] |  | ≥ 80 | ≥ 80 | ≥ 60 | ≥ 80 |  |  | 
15 | COC(=O)Cc1c(Cl)ncnc1ON=C1CC2CCC(C1)N2c1ncnc2sccc12 [Example 5.237] |  | ≥ 80 |  |  | ≥ 80 |  |  | 
16 | COc1cc(ON=C2CC3CCC(C2)N3c2ncnc3sccc23)nc(SC)n1 [Example 5.246] |  |  | ≥ 80 |  |  | ≥ 80 |  | 
17 | Clc1cc2c(cc1CON=C1CC3CCC(C1)N3c1ncnc3sccc13)OCO2 [Example 5.250] | ≥ 80 | ≥ 80 | ≥ 80 |  |  | ≥ 80 |  | 
18 | Cc1nn(C)c2nccc(N3C4CCC3CC(=NOCc3ccccc3)C4)c12 [Example 5.253] |  |  |  |  |  | ≥ 80 |  | 
19 | CCOC(=O)c1ccc(CON=C2CC3CCC(C2)N3c2ncnc3sccc23)o1 [Example 5.259] |  | ≥ 80 | ≥ 80 |  |  | ≥ 80 |  | 
20 | ClCC1COC2(CC3CCC(C2)N3c2ncnc3sccc23)O1 (stereo not drawn) [Example 6.8] | ≥ 80 | ≥ 80 | ≥ 80 |  |  | ≥ 80 |  | 
21 | CCC1COC2(CC3CCC(C2)N3c2ncnc3sccc23)O1 (stereo not drawn) [Example 6.9] | ≥ 80 | ≥ 80 | ≥ 80 |  |  | ≥ 80 |  | 
22 | O=C(CC1CC2CCC(C1)N2c1ncnc2sccc12)Nc1ccc(Cl)cc1 (stereo not drawn) [Example 7.12] |  |  | ≥ 80 |  |  | ≥ 80 |  | 
23 | FC(F)(F)c1csc(CC2CC3CCC(C2)N3c2ncnc3sccc23)n1 (stereo not drawn) [Example 7.18] | ≥ 80 |  | ≥ 80 | ≥ 60 |  | ≥ 80 | ≥ 80 | 
